According to ChEMBL document CHEMBL1147264, “Tricholomalides A-C, new neurotrophic diterpenes from the mushroom Tricholoma sp” (J Nat Prod, 2003):
Activity calls are given as the source filed them. The rule behind the calls is not given here.

Key:
PC-12 [1] = test: Induction of neurite outgrowth in rat PC12 cells; type: functional, cell-based
HeLa = test: Cytotoxicity against human HeLa cells at 50 ug/mL after 3 days by MTT assay; type: functional, cell-based
PC-12 [2] = test: Induction of neurite outgrowth in rat PC12 cells at 100 uM after 2 days by phase-contrast microscopy; type: functional, cell-based
[3] = Inhibition of Na(+)/K(+) ATPase

## CC(C)C1=C2[C@H]3CC=C(C=O)CC(=O)[C@]3(C)CC[C@@]2(C(=O)O)CC1
PC-12 [1]
  Activity: inactive

## C=C(CO)[C@]12C=C3C(=O)C[C@@H](C(C)C)[C@]3(C)C[C@@H](O)[C@@]1(C)CC(=O)O2
HeLa
  Activity: inactive
PC-12 [2]
  Activity: Active

## C=C1CO[C@H]2[C@@H]3C(=O)C[C@@H](C(C)C)[C@]3(C)C[C@H]3OC(=O)C[C@@]3(C)[C@@]12O
HeLa
  Activity: inactive
PC-12 [2]
  Activity: Active

## CO[C@H]1[C@H]2[C@@H](O)O[C@@H]1[C@]1(C)CC[C@@]3(C(=O)O)CCC(C(C)C)=C3[C@H]1C[C@H]2OC
PC-12 [1]
  Activity: inactive

## O=C(O)/C(=C1/OCO/C1=C(/C(=O)O)c1ccccc1)c1ccccc1
[3]
  Activity: Active

## C=C(CO)[C@@]1(O)C=C2C(=O)C[C@@H](C(C)C)[C@]2(C)C[C@H]2OC(=O)C[C@]21C
HeLa
  Activity: inactive
PC-12 [2]
  Activity: Active
